# Values joined by “and” are separate entries in the source; they are usually repeats but may differ in a detail not shown here. Equal values may be shown once. “Also recorded” adds a separate entry of the source. Read-outs that look alike come from different tables or passages of the source.
# Assays:
# [1] = tested on: Madison 109 (M109) mouse lung carcinoma
# Method: In all of the following in vivo experiments, the parent compound, doxorubicin, was injected intravenously (i.v.) in saline, while the fatty acid conjugates of doxorubicin were injected i.v. in 10% Cremophor® EL-P/10% ethanol/80% saline. The dosing schedule was Q3D×5.
# T-C in this assay is defined as the time in days for the drug-treated tumors to double their mass three times subtracted […] to double their mass three times.
# HT-29 human colon tumor = test: nude mouse xenograft model of the HT-29 human colon tumor; assay type: in vivo; conditions: for Complete Regressions / Days Delay T-C / Drug-related Deaths: nude mouse
# Method: (§1) The dosing schedule was Q3D×5.
# In the nude mouse xenograft model of the HT-29 human colon tumor (Table 3), doxorubicin produced a T-C delay of 15.3 days at the MTD dose of 6 mg/kg, whereas P-367 (LOC-GABA-doxorubicin) produced a T-C delay of 32 days at 50 mg/kg and 22 at 25 mg/kg. Note that the activity of the lowest dose of LOC-GABA-doxorubicin is approximately equivalent to the highest, MTD of doxorubicin itself.
# [2] = tested on: MDA-MB-435 human breast tumor; test: nude mouse xenograft model of the MDA-MB-435 human breast tumor; assay type: in vivo; conditions: for Complete Regressions / Days Delay T-C / Drug-related Deaths: nude mouse
# Method: as §1
# In the nude mouse xenograft model of the MDA-MB-435 human breast tumor (Table 4), doxorubicin produced a T-C delay of 14 days at the approximate MTD dose of 6 mg/kg (1/10 drug-related deaths). In the same model, LOC-GABA-doxorubicin produced a T-C delay of 13 days at 50 mg/kg (6/10 drug-related deaths) and 1.5 days at 25 mg/kg (0 drug-related deaths).
# M109-Lung Tumor = M109-Lung Tumor Model (Table 5, second study with OOC-GABA-doxorubicin); assay type: in vivo, mouse
# Source text: as §1
# [3] = Toxicology: maximum tolerated dose, i.v. Q3D×5; conditions: mouse, in vivo, iv; i.v. 5 times on a once every three day schedule
# Source text: as §1
# [4] = Solubility in solvents/excipients; assay type: physicochemical
# Source text: Table 7 summarizes the solubility of LOC-GABA-doxorubicin in several solvents.
# [5] = Stability in mouse serum/plasma at 37° C., HPLC; assay type: in vitro ADME
# Method: […] Serum samples added with only ethanol/Cremophor® were used as controls.
# Aliquots (100 μL) were taken from the spiked samples at 0, 1, 4, 8 and 24 h time intervals. Proteins were precipitated from the spiked solutions by the addition of 300 μL of acetonitrile. The suspensions were centrifuged and the supernatant transferred to separate microfuge tubes. The precipitate was washed twice with 300 μL of 90% acetonitrile. The wash solutions were combined with the supernatant and evaporated to dryness using a Centrivap Concentrator. The residue was then dissolved in 100 μL of methanol. Vortex mixing and sonication for 30 sec each were used to help dissolve the residue. The solution was then centrifuged at 10,000 rpm for 15 min. A 20 μL aliquot of the supernatant was analyzed by HPLC (Phenomenex column, C18, 250×4.6 mm, 5 u) using the following gradient conditions: […]
# UV detection: 487 nm; column temperature: 40° C.; flow rate: 1 mL/min. Analytes were quantitated by comparison of peak areas from direct injections of standard solutions with those obtained from samples subjected to the extraction procedure. The percent recovery of spiked analytes was calculated by comparison of the sample peak areas before incubation (time: 0 h) with those subjected to incubation at 37° C. […]
# tumor growth = test: anti-tumor activity of GABA-linked conjugate compared to the unconjugated anticancer agent (model not given); assay type: in vivo; conditions: model not specified
# Source text: The anti-tumor activity of LOC-GABA-doxorubicin was studied in three tumor models.
smiles,measurement,setting,value
"CCCCC/C=C\C/C=C\CCCCCCCCOC(=O)NCCCC(=O)N[C@H]1C[C@H](O[C@H]2C[C@](O)(C(=O)CO)Cc3c(O)c4c(c(O)c32)C(=O)c2c(OC)cccc2C4=O)O[C@@H](C)[C@H]1O [LOC-GABA-doxorubicin, linoleyl alcohol-GABA-doxorubicin]",Drug-related Deaths,[1]; 50 mg/kg i.v. Q3D×5,0/5
same,Tumor Growth Delay T-C,[1]; 50 mg/kg i.v. Q3D×5,28 days
same,Complete Regressions,[1]; 75 mg/kg i.v. Q3D×5,0
same,Drug-related Deaths,[1]; 75 mg/kg i.v. Q3D×5,0/5
same,Tumor Growth Delay T-C,[1]; 75 mg/kg i.v. Q3D×5,25 days
same,Complete Regressions,[1]; 100 mg/kg i.v. Q3D×5,0
same,Drug-related Deaths,[1]; 100 mg/kg i.v. Q3D×5,4/5
same,Complete Regressions,[1]; 150 mg/kg i.v. Q3D×5,0
same,Drug-related Deaths,[1]; 150 mg/kg i.v. Q3D×5,4/5
same,Complete Regressions,HT-29 human colon tumor; 12.5 mg/kg i.v. Q3D×5,0
same,Days Delay T-C,HT-29 human colon tumor; 12.5 mg/kg i.v. Q3D×5,5.4 days
same,Drug-related Deaths,HT-29 human colon tumor; 12.5 mg/kg i.v. Q3D×5,0/10
same,Complete Regressions,HT-29 human colon tumor; 25 mg/kg i.v. Q3D×5,0
same,Days Delay T-C,HT-29 human colon tumor; 25 mg/kg i.v. Q3D×5,22 days
same,Drug-related Deaths,HT-29 human colon tumor; 25 mg/kg i.v. Q3D×5,0/10
same,Complete Regressions,HT-29 human colon tumor; 50 mg/kg i.v. Q3D×5,0
same,Days Delay T-C,HT-29 human colon tumor; 50 mg/kg i.v. Q3D×5,32 days
same,Drug-related Deaths,HT-29 human colon tumor; 50 mg/kg i.v. Q3D×5,0/10
same,Complete Regressions,HT-29 human colon tumor; 75 mg/kg i.v. Q3D×5,0
same,Days Delay T-C,HT-29 human colon tumor; 75 mg/kg i.v. Q3D×5,34 days
same,Drug-related Deaths,HT-29 human colon tumor; 75 mg/kg i.v. Q3D×5,6/10
same,anti-tumor activity compared to doxorubicin,HT-29 human colon tumor; HT29 human colon carcinoma xenograft,activity superior to doxorubicin; also recorded: superior anti-tumor activity
same,Complete Regressions,[2]; 12.5 mg/kg i.v. Q3D×5,0
same,Days Delay T-C,[2]; 12.5 mg/kg i.v. Q3D×5,-2.0 days
same,Drug-related Deaths,[2]; 12.5 mg/kg i.v. Q3D×5,0/10
same,Complete Regressions,[2]; 25 mg/kg i.v. Q3D×5,0
same,Days Delay T-C,[2]; 25 mg/kg i.v. Q3D×5,1.5 days
same,Drug-related Deaths,[2]; 25 mg/kg i.v. Q3D×5,0 and 0/10
same,Complete Regressions,[2]; 50 mg/kg i.v. Q3D×5,0
same,Days Delay T-C,[2]; 50 mg/kg i.v. Q3D×5,13 days
same,Drug-related Deaths,[2]; 50 mg/kg i.v. Q3D×5,6/10
same,Complete Regressions,[2]; 75 mg/kg i.v. Q3D×5,0
same,Days Delay T-C,[2]; 75 mg/kg i.v. Q3D×5,21 days
same,Drug-related Deaths,[2]; 75 mg/kg i.v. Q3D×5,9/10
same,anti-tumor activity compared to doxorubicin,[2]; MDA-MB-435 human breast carcinoma xenograft,"active, but somewhat less active than doxorubicin and somewhat less efficacious than doxorubicin and not"
same,Complete Regressions,M109-Lung Tumor; 35 mg/kg i.v. Q3D×5,0
same,Days Delay T-C,M109-Lung Tumor; 35 mg/kg i.v. Q3D×5,1.1 days
same,Drug-related Deaths,M109-Lung Tumor; 35 mg/kg i.v. Q3D×5,0/5
same,Complete Regressions,M109-Lung Tumor; 50 mg/kg i.v. Q3D×5,0
same,Days Delay T-C,M109-Lung Tumor; 50 mg/kg i.v. Q3D×5,5.2 days
same,Drug-related Deaths,M109-Lung Tumor; 50 mg/kg i.v. Q3D×5,0/5
same,Complete Regressions,M109-Lung Tumor; 65 mg/kg i.v. Q3D×5,0
same,Days Delay T-C,M109-Lung Tumor; 65 mg/kg i.v. Q3D×5,9.3 days
same,Drug-related Deaths,M109-Lung Tumor; 65 mg/kg i.v. Q3D×5,0/5
same,Complete Regressions,M109-Lung Tumor; 80 mg/kg i.v. Q3D×5,0
same,Days Delay T-C,M109-Lung Tumor; 80 mg/kg i.v. Q3D×5,9.5 days
same,Drug-related Deaths,M109-Lung Tumor; 80 mg/kg i.v. Q3D×5,0/5
same,MTD,[3],50 to 75 mg/kg
same,solubility,"[4]; aqueous with cosolvent or surfactant or cyclodextrin, Cremophor ® EL-P:ethanol:saline (10:10:80)",16.8 mg/mL
same,solubility,"[4]; dimethyl isosorbide (DMI), organic solvent or mixture",490 mg/mL
same,solubility,"[4]; ethanol, organic solvent or mixture",252 mg/mL
same,time stable in mouse plasma,"[5]; 10 mg/mL formulation pH 7.5, 10 parts to 90 parts plasma",more than 8 hours
same,drug still present,"[5]; mouse plasma, 24 hours",over 90%
same,anti-tumor activity compared to the unconjugated drug,tumor growth,superior
CCC=CCC=CCC=CCC=CCC=CCC=CCCC(=O)NCCCC(=O)OC(C(=O)OC1CC2(O)C(OC(=O)c3ccccc3)C3C4(OC(C)=O)COC4CC(O)C3(C)C(=O)C(OC(C)=O)C(=C1C)C2(C)C)C(NC(=O)c1ccccc1)c1ccccc1 (stereo not shown),anti-tumor activity compared to the unconjugated drug,tumor growth,superior activity in inhibiting tumor growth
